Measurements: PMC12064818, “A general assay platform to study protein pharmacology using ligand-dependent structural dynamics” (Nature Communications, 2025)

target: T1, FLuc-C-HiBiT (Photinus pyralis, UniProt P08659); test: biochemical; conditions: enzyme activity, 10 uM ATP; read-out: IC50 or SDR50 (mM) / FLuc E
T1 construct: firefly luciferase with C-terminal HiBiT tag, E. coli expressed
T1 sequence (P08659 whole entry, looked up): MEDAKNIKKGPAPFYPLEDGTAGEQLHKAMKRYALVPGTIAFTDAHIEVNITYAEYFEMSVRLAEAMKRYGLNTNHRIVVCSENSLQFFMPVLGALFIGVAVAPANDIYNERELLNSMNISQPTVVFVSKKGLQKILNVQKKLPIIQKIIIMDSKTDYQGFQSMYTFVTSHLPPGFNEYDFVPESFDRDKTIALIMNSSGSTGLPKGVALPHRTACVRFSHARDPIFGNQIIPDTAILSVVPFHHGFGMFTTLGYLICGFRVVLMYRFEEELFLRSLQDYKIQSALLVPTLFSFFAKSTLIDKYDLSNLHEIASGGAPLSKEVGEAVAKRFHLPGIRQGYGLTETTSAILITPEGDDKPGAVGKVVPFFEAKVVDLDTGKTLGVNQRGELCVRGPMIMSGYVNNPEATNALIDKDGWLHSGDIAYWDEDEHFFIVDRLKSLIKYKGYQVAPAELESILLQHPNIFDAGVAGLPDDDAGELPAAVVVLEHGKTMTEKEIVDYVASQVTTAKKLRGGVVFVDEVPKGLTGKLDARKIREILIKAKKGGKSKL

SMILES | IC50 [mM]
CC(=O)NC1(C)CCN(Cc2cccc(-c3ccc4c(ccn4C)c3)c2)C1 (centres unmarked) [NCGC00410415-01] | 0.0101
CC(=O)NC1(C)CN(Cc2ccc(-c3ccc4c(ccn4C)c3)s2)C1 [NCGC00410429-01] | 0.00286
CC(=O)NC1(C)CN(Cc2ccc(-c3ccccc3OCc3ccccc3)s2)C1 [NCGC00410438-01] | 0.0227
COc1cccc(Nc2ccc(CN3CCC(C)(NC(C)=O)C3)cc2)c1 (centres unmarked) [NCGC00410471-01] | 0.0202
COCCN1CCNc2cc(-c3cccc(OC)c3)ncc2C1 [NCGC00411013-01] | 0.0202
Oc1cccc(-c2cc3c(cn2)CN(Cc2cccnc2)CCN3)c1 [NCGC00411023-01] | 0.0227
COc1cccc(CN2CCNc3cc(-c4ccnc(C)c4)ncc3C2)c1 [NCGC00411029-01] | 0.018
COc1ccc(-c2cc3c(cn2)CN(Cc2cccnc2)CCN3)cc1F [NCGC00411039-01] | 0.0143
Cc1cc(-c2cc3c(cn2)CN(Cc2ccccc2O)CCN3)ccn1 [NCGC00411040-01] | 0.018
OCc1cccc(-c2cc3c(cn2)CN(Cc2ccccc2)CCN3)c1 [NCGC00411045-01] | 0.018
Cc1cc(-c2cc3c(cn2)CN(Cc2nccn2C)CCN3)ccn1 [NCGC00411046-01] | 0.0161
c1cncc(Nc2cc3c(cn2)CN(Cc2cc[nH]n2)CCN3)c1 [NCGC00411048-01] | 0.018
c1ccc(Nc2cc3c(cn2)CN(CC2CCOC2)CCN3)cc1 (centres unmarked) [NCGC00411051-01] | 0.0202
CC(C)CN1CCNc2cc(-c3ccccc3)ncc2C1 [NCGC00411061-01] | 0.0226
Oc1ccccc1CN1CCNc2cc(-c3ccccc3)ncc2C1 [NCGC00411063-01] | 0.0161
COc1cccc(Nc2cc3c(cn2)CN(C)CCN3)c1 [NCGC00411064-01] | 0.0226
CC(=O)N1CCNc2cc(-c3ccccc3F)ncc2C1 [NCGC00411070-01] | 0.0285
Cc1cc(-c2cc3c(cn2)CN(CC(C)C)CCN3)ccn1 [NCGC00411077-01] | 0.0161
CN1CCNc2cc(-c3ccc([S+](C)(=O)[O-])cc3)ncc2C1 [NCGC00411079-01] | > 0.03
COc1ccc(CN2CCNc3cc(Nc4ccccc4)ncc3C2)cn1 [NCGC00411080-01] | 0.018
CC(=O)N1CCNc2cc(Nc3ccc(F)cc3)ncc2C1 [NCGC00411083-01] | 0.0057
c1ccc(Nc2cc3c(cn2)CN(Cc2ccsc2)CCN3)cc1 [NCGC00411091-01] | 0.0143
Clc1cccc(Nc2cc3c(cn2)CN(Cc2cccnc2)CCN3)c1 [NCGC00411094-01] | 0.0128

SMILES | IC50 [mM]
COc1cccc(Nc2cc3c(cn2)CN(C(C)=O)CCN3)c1 [NCGC00411096-01] | 0.00904
Clc1ccc(-c2cc3c(cn2)CN(Cc2ccncc2)CCN3)cc1 [NCGC00411101-01] | 0.0161
COc1ccc(-c2cc3c(cn2)CN(Cc2cccnc2)CCN3)cc1OC [NCGC00411110-01] | 0.0143
c1ccc(Nc2cc3c(cn2)CN(Cc2cc[nH]n2)CCN3)cc1 [NCGC00411115-01] | 0.0161
COCCN1CCNc2cc(Nc3cccc(OC)c3)ncc2C1 [NCGC00411124-01] | 0.018
COc1ccc(-c2cc3c(cn2)CN(C(C)=O)CCN3)cc1 [NCGC00411126-01] | 0.0128
Cn1ccnc1CN1CCNc2cc(Nc3ccccc3)ncc2C1 [NCGC00411128-01] | 0.0161
COc1cccc(Nc2cc3c(cn2)CN(Cc2cccnc2)CCN3)c1 [NCGC00411131-01] | 0.0101
CC(=O)Nc1cccc(-c2cc3c(cn2)CN(Cc2ccccc2)CCN3)c1 [NCGC00411143-01] | 0.0161
Cc1cc(-c2cc3c(cn2)CN(Cc2c[nH]cn2)CCN3)ccn1 [NCGC00411148-01] | 0.018
Cc1cc(-c2cc3c(cn2)CN(Cc2ccccn2)CCN3)ccn1 [NCGC00411150-01] | 0.0202
COc1ccc(-c2cc3c(cn2)CN(Cc2ccncc2)CCN3)cc1 [NCGC00411159-01] | 0.0161
COc1cccc(CN2CCNc3cc(Nc4ccccc4)ncc3C2)c1 [NCGC00411172-01] | 0.018
Cc1cc(-c2cc3c(cn2)CN(Cc2cccs2)CCN3)ccn1 [NCGC00411196-01] | 0.0114
Oc1ccccc1CN1CCNc2cc(Nc3ccccc3)ncc2C1 [NCGC00411199-02] | 0.0124
COc1cccc(CN2CCNc3cc(Nc4cccnc4)ncc3C2)c1 [NCGC00411206-01] | 0.018
COc1ccc(CN2CCNc3cc(-c4ccccc4)ncc3C2)cn1 [NCGC00411207-01] | 0.0202
COCCN1CCNc2cc(-c3cccc(N(C)C)c3)ncc2C1 [NCGC00411224-01] | 0.0161
Cc1nc[nH]c1CN1CCNc2cc(Nc3ccccc3)ncc2C1 [NCGC00411231-01] | 0.018
NC(=O)c1cccc(-c2cc3c(cn2)CN(Cc2ccccc2)CCN3)c1 [NCGC00411232-01] | 0.0202
CC(=O)N1CCNc2cc(Nc3cccc(N(C)C)c3)ncc2C1 [NCGC00411238-01] | 0.0161
CCn1cc(-c2cc3c(cn2)CN(C)CCN3)cn1 [NCGC00411244-01] | 0.0226
c1cncc(Nc2cc3c(cn2)CN(Cc2c[nH]cn2)CCN3)c1 [NCGC00411246-03] | > 0.03

SMILES | IC50 [mM]
CC(=O)N1CCNc2cc(-c3cccc(N4CCOCC4)c3)ncc2C1 [NCGC00411247-01] | 0.018
CC(=O)N1CCNc2cc(-c3cccc(F)c3)ncc2C1 [NCGC00411252-01] | 0.0254
COc1ccc(-c2cc3c(cn2)CN(C)CCN3)cn1 [NCGC00411253-01] | 0.0226
CCCN1CCNc2cc(Nc3ccccc3)ncc2C1 [NCGC00411254-01] | 0.0254
CC(C)(C)CN1CCNc2cc(Nc3cccnc3)ncc2C1 [NCGC00411255-01] | 0.0064
Fc1ccc(-c2cc3c(cn2)CN(Cc2ccncc2)CCN3)cc1Cl [NCGC00411256-01] | 0.018
CC(C)(C)CN1CCNc2cc(Nc3ccccc3)ncc2C1 [NCGC00411260-01] | 0.00718
CN1CCNc2cc(Nc3ccc(F)cc3)ncc2C1 [NCGC00411261-01] | 0.0202
CN1CCNc2cc(Nc3ccc(F)c(Cl)c3)ncc2C1 [NCGC00411263-01] | 0.0128
Cn1ccc2c(C(=O)NCCc3c[nH]cn3)nc(-c3ccc(N4CCOCC4)cc3)cc21 [NCGC00411589-01] | 0.00453
CN1CCN(c2ccc(-c3cc4c(ccn4C)c(C(=O)NCCN4CCNC4=O)n3)cc2)CC1 [NCGC00411611-01] | 0.0124
Cn1ccc2c(C(=O)NCc3cccnc3)nc(-c3ccc(N4CCOCC4)cc3)cc21 [NCGC00411612-01] | 0.018
CN1CCN(c2ccc(-c3cc4c(ccn4C)c(C(=O)NCCc4ccccn4)n3)cc2)CC1 [NCGC00411712-01] | 0.00279
CN1CCN(c2ccc(-c3cc4c(ccn4C)c(C(=O)NCC4CCC(=O)N4)n3)cc2)CC1 (centres unmarked) [NCGC00411731-01] | 0.0157
CN1CCN(c2ccc(-c3cc4c(ccn4C)c(C(=O)NCCC(N)=O)n3)cc2)CC1 [NCGC00411733-01] | 0.0143
OC(c1nc(Nc2ccc(Oc3ccccc3)cc2)n[nH]1)C1CC1 (centres unmarked) [NCGC00411906-01] | 0.0202
COc1ccc(-c2cnc3[nH]cc(CC(=O)N4CCN(c5ccccn5)CC4)c3c2)cc1 [NCGC00412443-01] | 0.018
Fc1cc(Nc2cnc3ccc(-c4ccccc4)nn23)cc(N2CCOCC2)c1 [NCGC00412489-01] | 0.0161
COc1ccc(-c2ccc3ncc(Nc4cc(F)cc(N5CCOCC5)c4)n3n2)cc1OC [NCGC00412497-01] | 0.0111
COc1ccc(-c2cnc(Nc3cccc(N[S+](C)(=O)[O-])c3)c3c2CCO3)cn1 [NCGC00412697-01] | 0.018
CNC(=O)c1cccc(-c2cnc(NC(=O)Cc3ccccc3)c3c2CCO3)c1 [NCGC00412711-01] | 0.00321
Fc1cccc(-c2cnc(Nc3ccc(N4CCOCC4)cc3)c3c2CCO3)c1 [NCGC00412721-01] | 0.0161
CNC(=O)c1cccc(-c2cnc(NC(=O)c3cn(C)cn3)c3c2CCO3)c1 [NCGC00412729-01] | 0.0202

SMILES | IC50 [mM]
COc1cccc(Nc2ncc(-c3cccnc3)c3c2OCC3)c1 [NCGC00412731-01] | 0.018
Clc1ccc(Nc2ncc(-c3cccnc3)c3c2OCC3)cc1 [NCGC00412736-01] | 0.018
CNC(=O)c1cccc(-c2cnc(Nc3cccnc3OC)c3c2CCO3)c1 [NCGC00412753-01] | 0.00508
Fc1ccc(Nc2ncc(-c3cccnc3)c3c2OCC3)cc1 [NCGC00412761-01] | 0.0114
CNC(=O)c1cccc(-c2cnc(Nc3ccccc3)c3c2CCO3)c1 [NCGC00412768-01] | 0.018
c1ccc(-c2cnc(Nc3ccc4c(c3)OCCO4)c3c2CCO3)cc1 [NCGC00412769-01] | 0.0161
O=C(Nc1ncc(-c2ccccc2)c2c1OCC2)c1ccccc1 [NCGC00412770-01] | 0.018
COc1ccc(-c2cnc(Nc3ccccc3)c3c2CCO3)cn1 [NCGC00412779-01] | 0.018
COc1cccc(Nc2ncc(-c3ccc(OC)nc3)c3c2OCC3)c1 [NCGC00412784-01] | 0.0202
CNC(=O)c1cccc(-c2cnc(Nc3ccc(Cl)cn3)c3c2CCO3)c1 [NCGC00412786-01] | 0.0101
CNC(=O)c1cccc(-c2cnc(NC(=O)c3ccncc3)c3c2CCO3)c1 [NCGC00412795-01] | 0.0202
c1ccc(Nc2ncc(-c3cccnc3)c3c2OCC3)cc1 [NCGC00412806-01] | 0.0226
COCCNc1ncc(-c2cccc(NC(C)=O)c2)c2c1OCC2 [NCGC00412815-01] | 0.0161
Cn1cc(-c2cnc(Nc3ccc(N4CCOCC4)cc3)c3c2CCO3)cn1 [NCGC00412818-01] | 0.0143
Cc1ccc(CN2CCc3nc(C(=O)Nc4ccccc4)oc3CC2)cc1 [NCGC00413255-01] | 0.0161
O=C(Nc1ccccc1)c1nc2c(o1)CCN(Cc1cccnc1)CC2 [NCGC00413263-01] | 0.0057
Cc1csc(NC(=O)c2nc3c(o2)CCN(Cc2ccccc2F)CC3)n1 [NCGC00413264-01] | 0.0128
O=C(Nc1cccnc1)c1nc2c(o1)CCN(Cc1nccs1)CC2 [NCGC00413267-01] | 0.0202
Cc1csc(NC(=O)c2nc3c(o2)CCN(Cc2cccc(F)c2)CC3)n1 [NCGC00413280-01] | 0.0143
O=C(Nc1ccccc1)c1nc2c(o1)CCN(Cc1ccccc1)CC2 [NCGC00413286-01] | 0.00453
